Test system: adult mongrel dogs
Experiment: Phenylephrine-induced hypertension in four anesthetized dogs (Example 8)
Assay type: in vivo, dog
Conditions: after administ. of phenylephrine 10 min.; 10 µg/kg/min, before CGRP
Description: Example 6 was repeated by substantially almost same manner using four adult mongrel dogs, mean body weight 12.3±3.0 kg, applying same anesthetic condition. After setting up the experiment at more than 60 minutes passing and confirming to stabilize the depth of anesthesia and blood flow, phenylephrine (hypertensor) 10 µg/kg/min was administered.
Further after 10 minutes passed, the active ingredient, desalanyl-deamino-c-CGRP 10 µg/kg/hr was administered and at 10 min. and 20 min. after administration of the active ingredient, heart rate (HR) and mean a artery pressure (MAP) were measured.

Compound: CNC[C@H](O)c1cccc(O)c1 [phenylephrine]
- HR: Heart rate: 138.0±9.3 beat/min
- MAP: Mean artery pressure: 159.0±6.2 mmHg
